# Data from the kinase profiling compilation of Christmann-Franck et al. (2016).
# What was measured:
# Assay in all cases: radiometric filter-binding kinase assay, Kinase HotSpot
# Settings in all cases: compound 0.5 µM; ATP 10 µM
# MAPKAPK2 (human) = MAPKAPK2 (human) (UniProt P49137)
# STK16 (human) = STK16 (human) (UniProt O75716)
# ACVR1 (human) = ACVR1 (human) (UniProt Q04771)
# FLT3 (human) = FLT3 (human) (UniProt P36888)
# FLT1 (human) = FLT1 (human) (UniProt P17948)
# PHKG1 (human) = PHKG1 (human) (UniProt Q16816)
# AURKC (human) = AURKC (human) (UniProt Q9UQB9)
# PRKCB1 (human) = PRKCB1 (human) (UniProt P05771)
# PRKACG (human) = PRKACG (human) (UniProt P22612)
# BRAF (human) = BRAF (human) (UniProt P15056)
# MST4 (human) = MST4 (human) (UniProt Q9P289)
# ACVR1B (human) = ACVR1B (human) (UniProt P36896)
# CDK1 CCNB1 (human) = CDK1 CCNB1 (human) (UniProt P06493+P14635)
# DYRK2 (human) = DYRK2 (human) (UniProt Q92630)
# ULK3 (human) = ULK3 (human) (UniProt Q6PHR2)
# ADRBK1 (human) = ADRBK1 (human) (UniProt P25098)
# CAMK1 (human) = CAMK1 (human) (UniProt Q14012)
# PAK4 (human) = PAK4 (human) (UniProt O96013)
# ZAP70 (human) = ZAP70 (human) (UniProt P43403)
# LRRK2 (human) = LRRK2 (human) (UniProt Q5S007)
# STK33 (human) = STK33 (human) (UniProt Q9BYT3)
# MYLK2 (human) = MYLK2 (human) (UniProt Q9H1R3)
# CSNK2A2 (human) = CSNK2A2 (human) (UniProt P19784)
# PTK6 (human) = PTK6 (human) (UniProt Q13882)
# EPHA5 (human) = EPHA5 (human) (UniProt P54756)
# MAP3K3 (human) = MAP3K3 (human) (UniProt Q99759)
# YES1 (human) = YES1 (human) (UniProt P07947)
# IKBKE (human) = IKBKE (human) (UniProt Q14164)
# IKBKB (human) = IKBKB (human) (UniProt O14920)
# EPHA7 (human) = EPHA7 (human) (UniProt Q15375)
# MAP3K10 (human) = MAP3K10 (human) (UniProt Q02779)
# BMX (human) = BMX (human) (UniProt P51813)
# FYN (human) = FYN (human) (UniProt P06241)
# GSK3A (human) = GSK3A (human) (UniProt P49840)
# DAPK1 (human) = DAPK1 (human) (UniProt P53355)
# DDR2 (human) = DDR2 (human) (UniProt Q16832)
# ROCK1 (human) = ROCK1 (human) (UniProt Q13464)
# PLK3 (human) = PLK3 (human) (UniProt Q9H4B4)
# GSK3B (human) = GSK3B (human) (UniProt P49841)
# FES (human) = FES (human) (UniProt P07332)
# HIPK4 (human) = HIPK4 (human) (UniProt Q8NE63)
# Sequence of PRKACG (human) (P22612 whole entry, looked up): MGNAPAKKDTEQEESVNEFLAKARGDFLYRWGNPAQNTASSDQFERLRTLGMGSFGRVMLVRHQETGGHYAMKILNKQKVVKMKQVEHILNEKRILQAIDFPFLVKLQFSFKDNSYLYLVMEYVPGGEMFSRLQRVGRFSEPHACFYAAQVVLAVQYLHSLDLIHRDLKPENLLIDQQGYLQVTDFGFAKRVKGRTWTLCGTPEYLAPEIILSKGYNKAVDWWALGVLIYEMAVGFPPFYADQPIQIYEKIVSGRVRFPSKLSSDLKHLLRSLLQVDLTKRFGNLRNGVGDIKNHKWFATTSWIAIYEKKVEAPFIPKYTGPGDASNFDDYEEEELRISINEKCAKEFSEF
# Sequence of ADRBK1 (human) (P25098 whole entry, looked up): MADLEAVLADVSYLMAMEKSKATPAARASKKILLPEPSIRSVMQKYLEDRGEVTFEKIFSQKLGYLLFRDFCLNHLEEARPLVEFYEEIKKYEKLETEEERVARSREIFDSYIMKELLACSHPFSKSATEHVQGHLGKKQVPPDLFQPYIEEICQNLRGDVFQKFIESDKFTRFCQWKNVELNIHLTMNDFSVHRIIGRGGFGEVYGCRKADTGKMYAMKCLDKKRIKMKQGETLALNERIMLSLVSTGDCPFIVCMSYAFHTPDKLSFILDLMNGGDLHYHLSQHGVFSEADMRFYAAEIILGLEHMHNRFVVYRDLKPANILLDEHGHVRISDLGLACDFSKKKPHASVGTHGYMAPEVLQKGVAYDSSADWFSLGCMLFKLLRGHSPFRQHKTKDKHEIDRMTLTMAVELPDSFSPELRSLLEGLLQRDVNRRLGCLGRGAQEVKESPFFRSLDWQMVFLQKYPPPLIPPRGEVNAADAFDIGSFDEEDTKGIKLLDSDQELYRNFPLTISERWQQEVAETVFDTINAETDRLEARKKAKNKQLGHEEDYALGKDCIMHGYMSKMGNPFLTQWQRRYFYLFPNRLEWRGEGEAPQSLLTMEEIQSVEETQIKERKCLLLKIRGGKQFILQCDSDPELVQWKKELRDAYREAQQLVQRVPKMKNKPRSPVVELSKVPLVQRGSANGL
# Sequence of IKBKE (human) (Q14164 whole entry, looked up): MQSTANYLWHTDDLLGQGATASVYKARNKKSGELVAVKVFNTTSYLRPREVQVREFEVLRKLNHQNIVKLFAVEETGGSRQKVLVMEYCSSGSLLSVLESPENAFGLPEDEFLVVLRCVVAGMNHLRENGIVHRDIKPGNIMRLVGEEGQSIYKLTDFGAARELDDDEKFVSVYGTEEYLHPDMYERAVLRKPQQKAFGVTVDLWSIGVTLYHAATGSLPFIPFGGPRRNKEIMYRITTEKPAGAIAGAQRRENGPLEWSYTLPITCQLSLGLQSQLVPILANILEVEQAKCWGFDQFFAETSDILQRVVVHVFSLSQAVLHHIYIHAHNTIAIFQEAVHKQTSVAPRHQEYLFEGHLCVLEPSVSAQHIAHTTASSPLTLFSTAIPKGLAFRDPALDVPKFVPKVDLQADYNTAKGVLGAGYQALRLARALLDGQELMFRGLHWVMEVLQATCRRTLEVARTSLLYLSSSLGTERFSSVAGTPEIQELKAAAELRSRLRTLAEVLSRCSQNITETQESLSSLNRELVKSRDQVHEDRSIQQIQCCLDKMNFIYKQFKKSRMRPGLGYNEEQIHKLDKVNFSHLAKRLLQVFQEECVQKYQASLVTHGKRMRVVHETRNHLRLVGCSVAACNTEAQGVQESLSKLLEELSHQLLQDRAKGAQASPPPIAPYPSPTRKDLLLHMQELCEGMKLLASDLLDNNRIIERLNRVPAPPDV
# Sequence of CAMK1 (human) (Q14012 whole entry, looked up): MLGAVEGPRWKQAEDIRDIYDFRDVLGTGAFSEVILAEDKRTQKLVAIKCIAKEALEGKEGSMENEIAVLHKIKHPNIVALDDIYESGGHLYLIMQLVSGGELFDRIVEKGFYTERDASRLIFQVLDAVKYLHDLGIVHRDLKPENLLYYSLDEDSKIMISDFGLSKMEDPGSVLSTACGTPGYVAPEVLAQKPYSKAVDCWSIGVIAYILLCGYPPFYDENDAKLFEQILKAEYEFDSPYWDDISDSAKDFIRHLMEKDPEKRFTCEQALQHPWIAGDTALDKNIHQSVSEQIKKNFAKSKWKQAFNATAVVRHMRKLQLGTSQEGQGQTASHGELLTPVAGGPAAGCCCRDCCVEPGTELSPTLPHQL
# Sequence of ACVR1 (human) (Q04771 whole entry, looked up): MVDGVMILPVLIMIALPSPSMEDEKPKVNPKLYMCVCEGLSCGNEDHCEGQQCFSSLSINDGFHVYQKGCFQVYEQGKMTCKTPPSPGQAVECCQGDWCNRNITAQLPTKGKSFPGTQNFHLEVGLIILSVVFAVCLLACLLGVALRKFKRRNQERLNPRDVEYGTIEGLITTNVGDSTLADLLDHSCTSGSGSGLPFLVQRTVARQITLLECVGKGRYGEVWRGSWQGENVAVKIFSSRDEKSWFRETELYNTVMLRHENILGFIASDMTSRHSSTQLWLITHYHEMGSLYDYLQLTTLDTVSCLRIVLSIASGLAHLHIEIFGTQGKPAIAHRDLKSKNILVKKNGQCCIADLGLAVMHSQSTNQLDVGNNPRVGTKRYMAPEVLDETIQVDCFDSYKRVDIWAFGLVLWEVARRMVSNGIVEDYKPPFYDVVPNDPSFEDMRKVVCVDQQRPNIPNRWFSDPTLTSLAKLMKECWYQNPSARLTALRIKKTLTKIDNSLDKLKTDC
# Sequence of PTK6 (human) (Q13882 whole entry, looked up): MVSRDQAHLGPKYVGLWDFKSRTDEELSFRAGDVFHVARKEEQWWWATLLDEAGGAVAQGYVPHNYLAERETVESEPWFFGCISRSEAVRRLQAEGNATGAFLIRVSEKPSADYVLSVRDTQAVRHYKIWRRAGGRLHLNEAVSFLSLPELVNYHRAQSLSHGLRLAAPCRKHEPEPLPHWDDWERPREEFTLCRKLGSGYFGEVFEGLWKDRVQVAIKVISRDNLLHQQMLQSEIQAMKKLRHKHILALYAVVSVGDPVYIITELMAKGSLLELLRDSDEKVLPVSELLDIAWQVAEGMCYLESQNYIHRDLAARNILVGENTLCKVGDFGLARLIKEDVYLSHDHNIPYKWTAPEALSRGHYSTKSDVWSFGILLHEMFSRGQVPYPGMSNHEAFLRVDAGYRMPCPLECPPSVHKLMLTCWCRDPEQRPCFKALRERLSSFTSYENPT
# Sequence of CSNK2A2 (human) (P19784 whole entry, looked up): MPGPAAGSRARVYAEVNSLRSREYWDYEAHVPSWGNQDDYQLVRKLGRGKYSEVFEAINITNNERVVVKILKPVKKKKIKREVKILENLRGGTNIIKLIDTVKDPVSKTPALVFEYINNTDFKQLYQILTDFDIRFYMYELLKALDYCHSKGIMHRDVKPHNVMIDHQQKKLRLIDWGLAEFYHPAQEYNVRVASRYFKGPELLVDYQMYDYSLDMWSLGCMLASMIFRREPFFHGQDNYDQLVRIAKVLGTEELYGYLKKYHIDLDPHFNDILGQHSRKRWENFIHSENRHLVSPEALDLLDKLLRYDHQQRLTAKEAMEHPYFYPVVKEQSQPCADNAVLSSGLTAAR
# Sequence of DAPK1 (human) (P53355 whole entry, looked up): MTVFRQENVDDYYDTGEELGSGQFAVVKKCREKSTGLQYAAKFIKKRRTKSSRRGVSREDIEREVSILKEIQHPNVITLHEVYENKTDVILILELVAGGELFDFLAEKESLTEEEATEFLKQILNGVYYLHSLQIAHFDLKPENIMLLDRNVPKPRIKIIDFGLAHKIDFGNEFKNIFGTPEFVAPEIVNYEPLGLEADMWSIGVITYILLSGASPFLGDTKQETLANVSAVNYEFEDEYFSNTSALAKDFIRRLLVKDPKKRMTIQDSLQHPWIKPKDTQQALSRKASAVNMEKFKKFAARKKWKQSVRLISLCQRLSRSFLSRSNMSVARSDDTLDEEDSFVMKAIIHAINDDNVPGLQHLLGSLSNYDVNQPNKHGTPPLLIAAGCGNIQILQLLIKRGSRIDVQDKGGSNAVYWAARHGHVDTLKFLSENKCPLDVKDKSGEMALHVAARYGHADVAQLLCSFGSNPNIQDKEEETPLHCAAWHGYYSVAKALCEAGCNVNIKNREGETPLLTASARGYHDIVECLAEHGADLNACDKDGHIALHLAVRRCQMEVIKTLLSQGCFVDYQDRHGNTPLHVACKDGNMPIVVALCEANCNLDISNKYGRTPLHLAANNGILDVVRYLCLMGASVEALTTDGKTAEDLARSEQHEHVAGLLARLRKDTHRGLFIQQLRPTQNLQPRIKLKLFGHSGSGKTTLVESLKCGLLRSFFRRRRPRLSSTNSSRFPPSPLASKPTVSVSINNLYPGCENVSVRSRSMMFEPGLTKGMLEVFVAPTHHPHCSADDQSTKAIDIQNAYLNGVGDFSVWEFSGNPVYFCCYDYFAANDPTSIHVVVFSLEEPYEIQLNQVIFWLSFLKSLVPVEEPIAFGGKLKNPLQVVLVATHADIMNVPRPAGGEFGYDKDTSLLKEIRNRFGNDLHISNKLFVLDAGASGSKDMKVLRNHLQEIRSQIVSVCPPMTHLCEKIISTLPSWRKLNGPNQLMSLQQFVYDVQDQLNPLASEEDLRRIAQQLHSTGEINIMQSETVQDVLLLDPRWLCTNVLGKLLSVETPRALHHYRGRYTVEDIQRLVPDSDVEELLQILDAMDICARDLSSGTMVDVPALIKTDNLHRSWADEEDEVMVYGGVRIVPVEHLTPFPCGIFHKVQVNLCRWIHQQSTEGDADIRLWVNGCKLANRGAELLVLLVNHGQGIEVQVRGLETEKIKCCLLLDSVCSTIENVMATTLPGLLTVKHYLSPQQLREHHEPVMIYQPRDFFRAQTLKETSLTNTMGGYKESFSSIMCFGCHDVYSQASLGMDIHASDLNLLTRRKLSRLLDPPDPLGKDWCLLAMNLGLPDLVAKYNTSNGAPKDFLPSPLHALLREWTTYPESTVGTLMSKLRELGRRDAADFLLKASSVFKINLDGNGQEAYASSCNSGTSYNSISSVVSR
structure (smiles),measurement,setting,value
CCC(=O)Nc1ccc2ncnc(Nc3cccc(Br)c3)c2c1,residual activity,MAPKAPK2 (human),87.1%
same,residual activity,STK16 (human),99.6%
same,residual activity,ACVR1 (human),93.7%
same,residual activity,FLT3 (human),94.1%
same,residual activity,FLT1 (human),86.9%
same,residual activity,PHKG1 (human),92.4%
same,residual activity,AURKC (human),102%
same,residual activity,PRKCB1 (human),99.2%
same,residual activity,PRKACG (human),95.5%
same,residual activity,BRAF (human),93%
same,residual activity,MST4 (human),97.6%
same,residual activity,ACVR1B (human),96.5%
same,residual activity,CDK1 CCNB1 (human),89.5%
same,residual activity,DYRK2 (human),90.6%
same,residual activity,ULK3 (human),97.5%
same,residual activity,ADRBK1 (human),112%
same,residual activity,CAMK1 (human),88.9%
same,residual activity,PAK4 (human),105%
same,residual activity,ZAP70 (human),113%
same,residual activity,LRRK2 (human),92.4%
same,residual activity,STK33 (human),94.1%
same,residual activity,MYLK2 (human),96.4%
same,residual activity,CSNK2A2 (human),61.4%
same,residual activity,PTK6 (human),57.2%
same,residual activity,EPHA5 (human),101%
same,residual activity,MAP3K3 (human),89.8%
same,residual activity,YES1 (human),87%
same,residual activity,IKBKE (human),94.9%
same,residual activity,IKBKB (human),94.9%
same,residual activity,EPHA7 (human),102%
same,residual activity,MAP3K10 (human),91.2%
same,residual activity,BMX (human),98.7%
same,residual activity,FYN (human),107%
same,residual activity,GSK3A (human),98.2%
same,residual activity,DAPK1 (human),99.4%
same,residual activity,DDR2 (human),109%
same,residual activity,ROCK1 (human),99.5%
same,residual activity,PLK3 (human),93.2%
same,residual activity,GSK3B (human),91.2%
same,residual activity,FES (human),102%
same,residual activity,HIPK4 (human),87.8%
